Results reported in US9822069B2, “Urea derivative or pharmacologically acceptable salt thereof” (KYORIN PHARMACEUTICAL CO. LTD., priority 2013, dated 2017).

Molecular target: T1, human FPRL1 (Homo sapiens, UniProt P25090)
T1 construct: expressed in transfected cells; host or cells: HEK293 (JCRB9068, NIBIO), transient transfection with pCMV-script vectors using Lipofectamine 2000
T1 sequence (P25090 1-351): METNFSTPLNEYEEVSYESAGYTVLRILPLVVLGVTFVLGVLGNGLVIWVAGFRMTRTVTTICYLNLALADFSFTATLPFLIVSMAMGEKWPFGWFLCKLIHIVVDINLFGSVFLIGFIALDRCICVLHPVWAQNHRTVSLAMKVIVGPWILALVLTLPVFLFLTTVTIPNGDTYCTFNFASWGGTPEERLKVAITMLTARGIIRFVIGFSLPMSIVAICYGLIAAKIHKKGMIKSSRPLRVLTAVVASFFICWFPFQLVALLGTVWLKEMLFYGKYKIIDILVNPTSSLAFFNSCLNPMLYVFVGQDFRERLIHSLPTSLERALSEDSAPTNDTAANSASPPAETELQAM
Assay: Measurement test of agonist activity on human FPRL1 (test of calcium mobilization in cell, HEK293 with human FPRL1 and Gα15 expression vectors)
Type: cell-based
Conditions: calcium mobilization in HEK293 cells with human FPRL1 and Gα15 expression vectors
Text: Measurement Test of Agonist Activity on Human FPRL1
(1-1) Construction of Human FPRL1 Expression Vector
Human FPRL (SEQ ID NO: 3) was amplified in a PCR reaction from cDNA derived from a monocytic leukemia cell line THP-1 (TIB-202, ATCC) as a template using a forward primer shown in SEQ ID NO: 1, a reverse primer shown in SEQ ID NO: 2, and KOD-plus-ver. 2 (KOD-211, TOYOBO CO., LTD.). The amplified PCR product and pCMV-script vector (212220, STRATAGENE) were digested with Hind III (1060A, Takara Bio Inc.) and XhoI (1094A, Takara Bio Inc.), and the resultant digest was ligated with Ligation high ver. 2 (LGK-201, TOYOBO CO., LTD.). The ligation product was transformed into DH5α (DNA-901, TOYOBO CO., LTD.), cultured on a 100 μg/mL kanamycin-containing LB medium, and purified with HiSpeed Plasmid Maxi Kit (12662, QIAGEN).
(1-2) Construction of Human Gα15 Expression Vector
Human Gα15 (SEQ ID NO: 6) was amplified in a PCR reaction from cDNA derived from a myeloid leukemia cell line HL-60 (CCL-240, ATCC) as a template using a forward primer shown in SEQ ID NO: 4, a reverse primer shown in SEQ ID NO: 5, and KOD-plus-ver. 2. The amplified PCR product and pCMV-script vector were digested with Hind III and XhoI, and the resultant digest was ligated with Ligation high ver. 2. The ligation product was transformed into DH5α, cultured on a 100 μg/mL kanamycin-containing LB medium, and purified with HiSpeed Plasmid Maxi Kit.
(2-1) Method for Culturing and Subculturing HEK293
HEK293 (JCRB9068, NIBIO) was cultured in an incubator at 5% CO2 and 37° C. using DMEM (11885-092, GIBCO) containing 10% FBS and 1× Penicillin-Streptomycin (15140-122, GIBCO). Subculture was carried out as followings: The cells that reached 80 to 90% confluency were washed with PBS(−), separated using 0.25% Trypsin-EDTA (25200-072, GIBCO), centrifuged, re-suspended in a fresh medium, and then seeded in Collagen Type 1 Coated dish (4020-010, IWAKI) at a split ratio of 1:8 (cultured for 3 days).
(2-2) Introduction of Human FPRL1 and Gα15 Expression Vectors
HEK293 that reached 80 to 90% confluency was washed with PBS(−), separated using 0.25% Trypsin-EDTA, centrifuged, and re-suspended in a fresh medium excluding 1× Penicillin-Streptomycin. The cells were inoculated in a Collagen Type 1 coated 6-well plate (4810-010, IWAKI) to 5×10^5 cells/2.5 mL/well and cultured overnight. On the next day, human FPRL1 and Gα15 expression vectors were introduced using Lipofectamine 2000 transfection reagent (11668-019, Life technologies). First, the human FPRL1 and Gα15 expression vectors were diluted with Opti-MEM I Reduced Serum Medium (31985-070, GIBCO) to 2 μg/250 μL/well and Lipofectamine 2000 transfection reagent was diluted with Opti-MEM I Reduced Serum Medium to be 4 μL/250 μL/well. The vectors and reagent were softly diffused, and incubated at room temperature for 5 minutes. The vector solution was mixed with Lipofectamine 2000 transfection reagent in equal amounts. In order to form a composite of the vectors and Lipofectamine 2000 transfection reagent, the mixture was incubated at room temperature for 20 minutes, and added at 500 μL/well to the medium of inoculated cells. The treated cells were cultured for 24 hours, inoculated in Poly-D-Lysine coated 96-well plate (356640, BD Biosciences) at a cell density of 7×10^4 cells/100 μL/well, and cultured for another 24 hours. The resultant cells were used in a measurement test of calcium mobilization in the cells.
(3) Evaluation of Agonist Activity on Human FPRL1 (Test of Calcium Mobilization in Cell)
An appropriate amount of each test compound was first weighed, and dissolved to 10^−2 M by addition of dimethyl sulfoxide (DMSO). […]

Compound	EC50
COc1ccc([C@@H]2CNC(=O)[C@H]2NC(=O)Nc2ccc(F)cc2)s1 (single isomer, unassigned) [EXAMPLE 1-19, (−)-1-(4-fluorophenyl)-3-[(3S*,4R*)-4-(5-methoxythiophen-2-yl)-2-oxopyrrolidin-3-yl]urea]	0.72 nM
COc1cc(F)c([C@@H]2CNC(=O)[C@H]2NC(=O)Nc2ccc(C)s2)c(F)c1 (relative stereo) [Example 1-39, (−)-1-[(3S*,4R*)-4-(2,6-difluoro-4-methoxyphenyl)-2-oxopyrrolidin-3-yl]-3-(5-methylthiophen-2-yl)urea]	3.51 nM
COc1cc(F)c([C@@H]2CN/C(=N\N3CCOCC3)[C@H]2NC(=O)Nc2ccc(F)cc2)c(F)c1 (single isomer, unassigned) [EXAMPLE 32-17, (−)-1-[(3S*,4R*,Z)-4-(2,6-difluoro-4-methoxyphenyl)-2-(morpholinoimino)pyrrolidin-3-yl]-3-(4-fluorophenyl)urea]	0.57 nM
COc1cc(F)c([C@@H]2CN(Cc3cccnc3)C(=O)[C@H]2NC(=O)Nc2ccc(F)cc2)c(F)c1 (relative stereo) [Example 24-13, (−)-1-[(3S*,4R*)-4-(2,6-difluoro-4-methoxyphenyl)-2-oxo-1-(pyridin-3-ylmethyl)pyrrolidin-3-yl]-3-(4-fluorophenyl)urea]	0.11 nM
COc1cc(F)c([C@@H]2CN(C)C(=O)[C@H]2NC(=O)Nc2ccc(C#N)cc2)c(F)c1 (relative stereo) [Example 24-3]	1.1 nM
COc1ccc([C@@H]2CN(C(C)(C)CO)C(=O)[C@H]2NC(=O)Nc2ccc(F)cc2)cc1 (relative stereo) [Example 12-4, (−)-1-(4-fluorophenyl)-3-[(3S*,4R*)-1-(1-hydroxy-2-methylpropan-2-yl)-4-(4-methoxyphenyl)-2-oxopyrrolidin-3-yl]urea]	0.05 nM
COc1cc(F)c([C@@H]2CNC(=O)[C@H]2NC(=O)Nc2ccc(Cl)cn2)c(F)c1 (relative stereo) [Example 1-32, (−)-1-(5-chloropyridin-2-yl)-3-[(3S*,4R*)-4-(2,6-difluoro-4-methoxyphenyl)-2-oxopyrrolidin-3-yl]urea]	4.54 nM
COc1ccc([C@@H]2CN(CCO)C(=O)C2NC(=O)Nc2ccc(Cl)cc2)cc1 (mixture of isomers) [Example 14-1, (±)-trans-1-(4-Chlorophenyl)-3-[1-(2-hydroxyethyl)-4-(4-methoxyphenyl)-2-oxopyrrolidin-3-yl]urea]	0.32 nM
Cc1nnc(CN2C[C@@H](c3cc4c(cc3F)OCC4)[C@H](NC(=O)Nc3ccc(F)cc3)C2=O)o1 (single isomer, unassigned) [EXAMPLE 24-24, (−)-1-{(3S*,4R*)-4-(6-fluoro-2,3-dihydrobenzofuran-5-yl)-1-[(5-methyl-1,3,4-oxadiazol-2-yl)methyl]-2-oxopyrrolidin-3-yl}-3-(4-fluorophenyl)urea]	0.46 nM
COc1cc(F)c([C@@H]2CNC(=O)[C@H]2NC(=O)Nc2cccc(O)c2)c(F)c1 (relative stereo) [Example 1-57, 1-[(3S*,4R*)-4-(2,6-difluoro-4-methoxyphenyl)-2-oxopyrrolidine-3-yl]-3-(3-hydroxyphenyl)urea]	0.16 nM
COc1cc(F)c([C@@H]2CN/C(=N\OCCO)[C@H]2NC(=O)Nc2ccc(C#N)cc2)c(F)c1 (single isomer, unassigned) [EXAMPLE 32-13, (−)-1-(4-cyanophenyl)-3-{(3S*,4R*,Z)-4-(2,6-difluoro-4-methoxyphenyl)-2-[(2-hydroxyethoxy)imino]pyrrolidin-3-yl}urea]	0.25 nM
COc1cc(F)c([C@@H]2CN(CCO)C(=O)[C@H]2NC(=O)Nc2ccc(C)cc2)c(F)c1 (relative stereo) [Example 24-7, (−)-1-[(3S*,4R*)-4-(2,6-difluoro-4-methoxyphenyl)-1-(2-hydroxyethyl)-2-oxopyrrolidin-3-yl]-3-(p-tolyl)urea]	0.69 nM
COc1cc(F)c([C@@H]2CNC(=O)[C@H]2NC(=O)Nc2ccc(C#N)c(O)c2)c(F)c1 (relative stereo) [Example 1-73, 1-(4-cyano-3-hydroxyphenyl)-3-[(3S*,4R*)-4-(2,6-difluoro-4-methoxyphenyl)-2-oxopyrrolidin-3-yl]urea]	1.2 nM
COc1ccc([C@H]2CN(OC)C(=O)[C@@H]2NC(=O)Nc2ccc(F)cc2)cc1 (single isomer, unassigned) [EXAMPLE 27-1, (+)-1-(4-Fluorophenyl)-3-[(3R*,4S*)-1-methoxy-4-(4-methoxyphenyl)-2-oxopyrrolidin-3-yl]urea]	3.14 nM
COc1ccc([C@@H]2CN(C(C)C(=O)O)C(=O)[C@H]2NC(=O)Nc2ccc(F)cc2)cc1 (single isomer, unassigned; isomer b) [Example 20-1, (−)-2-{(3S*,4R*)-3-[3-(4-Fluorophenyl)ureido]-4-(4-methoxyphenyl)-2-oxopyrrolidin-1-yl}propionic acid (isomer B)]	0.47 nM
COc1cc(F)c([C@@H]2CNC(=O)[C@H]2NC(=O)Nc2cc(C)ns2)c(F)c1 (relative stereo) [Example 1-58, (−)-1-[(3S*,4R*)-4-(2,6-difluoro-4-methoxyphenyl)-2-oxopyrrolidin-3-yl]-3-(3-methylisothiazol-5-yl)urea]	0.32 nM
CCOC(=O)CC/N=C1\NC[C@@H](c2c(F)cc(OC)cc2F)[C@@H]1NC(=O)Nc1ccc(F)cc1 [EXAMPLE 32-20, 3-((Z)-{(3S,4R)-4-(2,6-difluoro-4-methoxyphenyl)-3-[3-(4-fluorophenyl)ureido]pyrrolidin-2-ylidene}amino) propanoic acid ethyl ester]	2.86 nM
CCOC(=O)CN1C[C@@H](c2cc3c(cc2F)OCC3)[C@H](NC(=O)Nc2ccc(F)cc2)C1=O (single isomer, unassigned) [EXAMPLE 24-20, (−)-2-{(3S*,4R*)-4-(6-fluoro-2,3-dihydrobenzofuran-5-yl)-3-[3-(4-fluorophenyl)ureido]-2-oxopyrrolidin-1-yl}acetic acid ethyl ester]	0.15 nM
COc1cnc([C@@H]2CNC(=O)[C@H]2NC(=O)Nc2ccc(Cl)s2)c(F)c1 (relative stereo) [Example 8-2, (−)-1-(5-chlorothiophen-2-yl)-3-[(3S*,4R*)-4-(3-fluoro-5-methoxypyridin-2-yl)-2-oxopyrrolidin-3-yl]urea]	1.6 nM
CO/N=C1\NC[C@@H](c2c(F)cc(OC)cc2F)[C@@H]1NC(=O)Nc1ccc(Cl)nc1 (single isomer, unassigned) [EXAMPLE 32-10, (−)-1-(6-chloropyridin-3-yl)-3-[(3S*,4R*,Z)-4-(2,6-difluoro-4-methoxyphenyl)-2-(methoxyimino)pyrrolidin-3-yl]urea]	0.53 nM
